Laboratory results: patent US20230049952A1, “METHODS AND COMPOUNDS FOR RESTORING MUTANT P53 FUNCTION” (PMV Pharmaceuticals, Inc., priority 2020, published 2023)
Several values for one entry are separate records, joined by “and”; a condition that tells them apart may be missing. Equal values may be shown once.

What was measured:
[1] = in vitro
Method: All working solutions were freshly prepared similarly as described for the test article working solution.
Assay for determining Blood to plasma ratio: Pooled male CD-1 mouse, Sprague-Dawley rat, beagle dog and cynomolgus monkey plasma, and mixed gender human blood with EDTAK2 as anticoagulant were stored on wet ice and used the same day. […] After mixing thoroughly, 0.6 mL of spiked blood was transferred to a 96-well plate in triplicate. Concurrently, control compounds were spiked into each species blood in the same fashion to generate the final concentration of 2.0 μM.
The rest of the spiked blood samples were immediately placed into a humidified incubator with 5% CO2 at 37° C., with constant swiveling at 500 rpm for 60 min on a platform shaker. […] The T60-plasma samples for analysis were obtained by taking 50 μL of plasma from each well, mixed with 50 μL of blank blood and 100 μL of water, followed by addition of 600 μL stop solution. […] All the T0, T60-blood and T60-plasma samples were shaken vigorously at 800 rpm for 30 min followed by the centrifugation at 3220×g at 20° C. for 20 min. 100 μL aliquot of supernatant was diluted with 100 μL of water and mixed well for LC-MS/MS analysis.
Measurement of Hematocrit: The hematocrit (the volume percentage of erythrocytes in blood) was determined in triplicate for each species by centrifuging the blood samples with a HAEMATOKRIT 200 at 9440×g for 5 min.
Data analysis: The ratio of compound concentrations in whole blood over plasma (KB/P) and % Recovery in blood were calculated by the following equations: KB/P=[…]([T60-blood]/[T60-plasma]), where [T60-blood] is the peak area ratios of analyte/internal standard in whole blood sample at 60 min; [T60-plasma] is the peak area ratios of analyte/internal standard in plasma sample at 60 min; [T0-blood] is the peak area ratios of analyte/internal standard in whole blood sample at time zero.

[2] = target: CYP3A (Homo sapiens, UniProt P08684); test: in vitro; conditions: both, microsomes, pH 7.4, % of Control Enzyme Activity, HLM; for activity at 10 min, 0.037 µM: 0.0370 μM
[3] = tested on: CYP2B6; test: CYP induction in human hepatocytes (mRNA and enzyme activity); conditions: for % Induction Relative to Positive Control / Fold-Change: CYP2B6 enzyme activity, control article
[4] = target: T1, CYP2B6 (Homo sapiens, UniProt P20813); test: CYP inhibition in human liver microsomes; type: in vitro ADME; set-up: from tissue; host or cells: pooled human liver microsomes, 200 donors; conditions: both sexes, pooled human liver microsomes, pH 7.4, HLM, read-out: % of Control Enzyme Activity
T1 sequence (P20813 1-491): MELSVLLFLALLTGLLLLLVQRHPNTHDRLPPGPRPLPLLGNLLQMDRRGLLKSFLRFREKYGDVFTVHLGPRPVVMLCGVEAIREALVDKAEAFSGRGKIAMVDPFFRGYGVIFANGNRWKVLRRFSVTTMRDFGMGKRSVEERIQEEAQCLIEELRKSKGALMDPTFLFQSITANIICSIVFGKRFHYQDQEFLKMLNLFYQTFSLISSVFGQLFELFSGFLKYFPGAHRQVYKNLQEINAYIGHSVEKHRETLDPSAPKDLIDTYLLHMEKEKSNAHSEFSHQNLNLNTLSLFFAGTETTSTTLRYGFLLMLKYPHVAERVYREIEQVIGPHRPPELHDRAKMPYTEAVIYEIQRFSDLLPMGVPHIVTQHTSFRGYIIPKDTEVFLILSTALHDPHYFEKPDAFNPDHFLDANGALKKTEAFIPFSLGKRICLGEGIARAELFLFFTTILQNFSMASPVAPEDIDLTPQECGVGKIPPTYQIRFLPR
Method: The HLMs were stored at −80° C. until use.
Negative (vehicle) controls were conducted without a test article.

[5] = target: T1, CYP2B6; test: time-dependent CYP inhibition in human liver microsomes (IC50 shift); conditions: both, pooled human liver microsomes, pH 7.4, % of Control Enzyme Activity; for activity at 20 min, 0.37 µM: 0.370 μM
[6] = target: CYP2C9 (Homo sapiens, UniProt P11712); test: in vitro; conditions: both, microsomes, pH 7.4, % of Control Enzyme Activity
[7] = target: P-GP (Homo sapiens, UniProt P08183); test: in vitro; conditions: pH 7.4
[8] = in vitro; conditions: male, plasma
Method: Studies were carried out in mixed-gender human plasma, male Sprague-Dawley rat plasma, male CD-1 mouse plasma, male Beagle dog plasma, and male Cynomolgus monkey plasma collected on sodium heparin. A Rapid Equilibrium Dialysis (RED) device was used for all experiments. […] Blank PBS (500 μL) was added to each corresponding receiver chamber. The device was then placed into an enclosed heated rocker that was pre-warmed to 37° C., and allowed to incubate for four hours. After 4 hours of incubation, both sides were sampled.
Aliquots (50 μL for donor, 200 μL for receiver) were removed from the chambers and placed into a 96-well plate. Plasma (50 μL) was added to the wells containing the receiver samples, and 200 μL of PBS was added to the wells containing the donor samples. Two volumes of acetonitrile were added to each well, and the plate was mixed and then centrifuged at 3,000 rpm for 10 minutes. Aliquots of the supernatant were removed, and analyzed by LCMS/MS. Calibration standards were prepared in a matched matrix and prepared similarly to the assay samples. Binding and recovery values were calculated as follows: % Bound=[(Concentration in Donor−Concentration in Receiver)/(Concentration in Donor)]×100; % Recovery=[(Concentration in Donor+Concentration in Receiver)/(Nominal Dosing Concentration)]×100.

CYP3A, sequence (P08684 2-503): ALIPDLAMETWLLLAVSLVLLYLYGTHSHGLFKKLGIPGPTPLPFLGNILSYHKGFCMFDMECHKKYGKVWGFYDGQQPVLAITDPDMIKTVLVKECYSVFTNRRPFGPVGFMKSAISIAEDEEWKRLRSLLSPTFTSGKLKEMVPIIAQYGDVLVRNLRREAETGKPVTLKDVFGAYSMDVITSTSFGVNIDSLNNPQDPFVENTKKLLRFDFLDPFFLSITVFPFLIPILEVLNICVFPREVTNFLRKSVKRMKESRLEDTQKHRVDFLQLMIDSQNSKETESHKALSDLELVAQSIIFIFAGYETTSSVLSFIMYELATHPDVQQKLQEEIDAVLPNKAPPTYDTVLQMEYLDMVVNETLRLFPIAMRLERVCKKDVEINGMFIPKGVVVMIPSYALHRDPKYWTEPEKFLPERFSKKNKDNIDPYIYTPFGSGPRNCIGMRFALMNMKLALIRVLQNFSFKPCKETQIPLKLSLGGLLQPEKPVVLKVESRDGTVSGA
CYP2C9, sequence (P11712 whole entry): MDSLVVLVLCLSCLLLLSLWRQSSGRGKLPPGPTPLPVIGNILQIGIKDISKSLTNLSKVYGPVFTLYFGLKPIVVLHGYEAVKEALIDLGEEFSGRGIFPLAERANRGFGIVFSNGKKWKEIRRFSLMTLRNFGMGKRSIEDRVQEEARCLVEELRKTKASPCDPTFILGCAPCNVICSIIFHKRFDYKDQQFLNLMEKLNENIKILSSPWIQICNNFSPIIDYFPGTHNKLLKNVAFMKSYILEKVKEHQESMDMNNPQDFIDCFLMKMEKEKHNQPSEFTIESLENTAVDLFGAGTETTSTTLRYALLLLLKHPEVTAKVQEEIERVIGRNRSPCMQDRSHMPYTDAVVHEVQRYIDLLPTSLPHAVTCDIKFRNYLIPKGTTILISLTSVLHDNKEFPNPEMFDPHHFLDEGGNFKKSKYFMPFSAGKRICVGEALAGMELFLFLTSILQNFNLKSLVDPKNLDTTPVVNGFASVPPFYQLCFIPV
P-GP, sequence (P08183 whole entry): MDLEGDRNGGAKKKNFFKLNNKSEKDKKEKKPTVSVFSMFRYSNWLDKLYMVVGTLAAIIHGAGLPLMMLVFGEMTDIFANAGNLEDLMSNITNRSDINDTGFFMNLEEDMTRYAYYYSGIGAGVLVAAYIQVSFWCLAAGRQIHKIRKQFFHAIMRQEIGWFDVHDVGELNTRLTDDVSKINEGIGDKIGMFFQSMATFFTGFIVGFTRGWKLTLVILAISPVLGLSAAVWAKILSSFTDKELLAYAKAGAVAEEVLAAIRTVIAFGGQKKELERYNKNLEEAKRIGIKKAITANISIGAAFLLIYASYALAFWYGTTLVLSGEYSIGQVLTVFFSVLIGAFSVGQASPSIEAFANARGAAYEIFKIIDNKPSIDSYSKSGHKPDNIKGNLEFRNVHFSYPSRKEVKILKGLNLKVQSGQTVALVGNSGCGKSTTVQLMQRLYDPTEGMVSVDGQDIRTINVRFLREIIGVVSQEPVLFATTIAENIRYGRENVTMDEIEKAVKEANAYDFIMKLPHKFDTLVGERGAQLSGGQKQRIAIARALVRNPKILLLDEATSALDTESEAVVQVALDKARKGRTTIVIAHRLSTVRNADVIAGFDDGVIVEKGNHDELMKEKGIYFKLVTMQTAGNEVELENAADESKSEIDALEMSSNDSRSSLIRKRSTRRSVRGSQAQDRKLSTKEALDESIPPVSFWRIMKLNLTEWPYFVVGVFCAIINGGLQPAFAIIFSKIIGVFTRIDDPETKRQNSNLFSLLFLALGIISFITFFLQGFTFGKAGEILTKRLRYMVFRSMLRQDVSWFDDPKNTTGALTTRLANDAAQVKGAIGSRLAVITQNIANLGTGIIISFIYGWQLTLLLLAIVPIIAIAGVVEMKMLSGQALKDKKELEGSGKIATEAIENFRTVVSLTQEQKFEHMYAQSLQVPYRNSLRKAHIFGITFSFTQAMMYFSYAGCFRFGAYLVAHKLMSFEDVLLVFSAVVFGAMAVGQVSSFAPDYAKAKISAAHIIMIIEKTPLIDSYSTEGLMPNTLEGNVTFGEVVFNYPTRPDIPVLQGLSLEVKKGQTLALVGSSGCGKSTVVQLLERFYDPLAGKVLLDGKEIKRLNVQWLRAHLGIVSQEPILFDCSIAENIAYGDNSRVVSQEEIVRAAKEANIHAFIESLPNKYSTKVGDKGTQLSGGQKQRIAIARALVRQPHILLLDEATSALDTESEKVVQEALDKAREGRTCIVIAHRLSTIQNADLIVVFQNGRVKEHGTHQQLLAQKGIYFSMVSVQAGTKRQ

For `CCN(CC)CCCC(C)Nc1ccnc2cc(Cl)ccc12` (stereo not shown) [Chloroquine, chloroquine], the recovery at 60 min, 2 μM ([1]; both, human) was 90.8 ± 6.07%, the recovery at 60 min, 2 μM ([1]; male, CD-1, mouse) was 99.4 ± 1.7% and the recovery at 60 min, 2 μM ([1]; male, Sprague-Dawley, rat) was 100 ± 1.86%. For the same compound, the recovery at 60 min, 2 μM ([1]; male, beagle, dog) was 113 ± 3.57% and the recovery at 60 min, 2 μM ([1]; male, cynomolgus monkey) was 96.9 ± 1.83%.

For `CC(=O)N1CCN(c2ccc(OCC3COC(Cn4ccnc4)(c4ccc(Cl)cc4Cl)O3)cc2)CC1` (stereo not shown) [Ketoconazole, ketoconazole], the activity at 10 min, 0.0123 µM ([2]; Midazolam probe) was 74.5%, the activity at 10 min, 0.037 µM ([2]; Midazolam probe) was 49.9% and the activity at 10 min, 3 µM ([2]; Midazolam probe) was 5.38%. The activity at 10 min, 0.0123 µM ([2]; Testosterone probe) was 58.4%, the activity at 10 min, 0.037 µM ([2]; Testosterone probe) was 32.9% and the activity at 10 min, 0.333 µM ([2]; Testosterone probe, 0.333 μM) was 6.75%. It also gave an activity at 10 min, 1 µM ([2]; Testosterone probe, 1.00 μM) of 3.54% and an activity at 10 min, 3 µM ([2]; Testosterone probe) of 1.56%.

In the case of `CCC1(c2ccccc2)C(=O)NC(=O)NC1=O` [PB, phenobarbital], the “% Induction Relative to Positive Control” value ([3]; Donor 1) is reported as 100%, the Fold-Change ([3]; Donor 1) is reported as 6.84 and the “% Induction Relative to Positive Control” value ([3]; Donor 2) is reported as 100%. For the same compound, the Fold-Change ([3]; Donor 2) was 8.56, the “% Induction Relative to Positive Control” value ([3]; Donor 3) was 100% and the Fold-Change ([3]; Donor 3) was 3.36. For the same compound, the “CYP2B6 mRNA % Induction Relative to Positive Control” value ([3]; Donor 1, 1000 μM) was 100%, the “CYP2B6 mRNA Fold Change (n = 3) Mean” value ([3]; Donor 1, 1000 μM) was 24.4 and the “CYP2B6 mRNA % Induction Relative to Positive Control” value ([3]; Donor 2, 1000 μM) was 100%. For the same compound, the “CYP2B6 mRNA Fold Change (n = 3) Mean” value ([3]; Donor 2, 1000 μM) was 793, the “CYP2B6 mRNA % Induction Relative to Positive Control” value ([3]; Donor 3, 1000 μM) was 100% and the “CYP2B6 mRNA Fold Change (n = 3) Mean” value ([3]; Donor 3, 1000 μM) was 6.85. The “CYP2B6 mRNA fold increase (positive control)” value ([3]; donor 2, positive control) was 793 fold.

In the case of `S=P(N1CC1)(N1CC1)N1CC1` [Thio-TEPA], the activity at 20 min, 0.123 µM ([4]; 0.123 μM) is reported as 97%, the activity at 20 min, 0.37 µM ([4]; 0.370 μM) is reported as 97.3% and the activity at 20 min, 3.33 µM ([4]; 3.33 μM) is reported as 69.7%. The activity at 20 min, 10 µM ([4]; 10.0 μM) was 44.3%, the activity at 20 min, 30 µM ([4]; 30.0 μM) was 25.6% and the activity at 20 min, 0.37 µM ([5]; pre-incubation 30 min +NADPH) was 86.4%. It also gave an activity at 20 min, 3.33 µM ([5]; pre-incubation 30 min +NADPH) of 37.6%, an activity at 20 min, 10 µM ([5]; pre-incubation 30 min +NADPH) of 18% and an activity at 20 min, 30 µM ([5]; pre-incubation 30 min +NADPH) of 11.7%. The activity at 20 min, 0.37 µM ([5]; pre-incubation 30 min −NADPH) was 92.5%, the activity at 20 min, 3.33 µM ([5]; pre-incubation 30 min −NADPH) was 78.5% and the activity at 20 min, 10 µM ([5]; pre-incubation 30 min −NADPH) was 58.6%. The activity at 20 min, 30 µM ([5]; pre-incubation 30 min −NADPH) was 41.4%.

`O=C(O)COc1ccc(C(=O)c2cccs2)c(Cl)c1Cl` [Tienilic acid] gave an activity at 20 min, 0.123 µM [6] of 96.5%, an activity at 20 min, 0.37 µM [6] of 80.1% and an activity at 20 min, 3.33 µM [6] of 32.8%. The activity at 20 min, 30 µM [6] was 8.14%, the activity at 20 min, […] [6] was 101% and 57.4% and the activity at 30 min, 0.123 µM [6] was 74.4%. For the same compound, the activity at 30 min, 0.37 µM [6] was 36.8%, the activity at 30 min, 3.33 µM [6] was 9.24% and the activity at 30 min, 30 µM [6] was 3.84%.

Work on `C/C=C/C[C@@H](C)C(=O)[C@H]1C(=O)N[C@@H](C(C)C)C(=O)N(C)CC(=O)N(C)[C@@H](CC(C)C)C(=O)N[C@@H](C(C)C)C(=O)N(C)[C@@H](CC(C)C)C(=O)N[C@@H](C)C(=O)N[C@H](C)C(=O)N(C)[C@@H](CC(C)C)C(=O)N(C)[C@@H](CC(C)C)C(=O)N(C)[C@@H](C(C)C)C(=O)N1C` [Valspodar, valspodar] yielded an inhibition at 120 min, 1 µM [7] of 100%.

Work on `CC(=O)CC(c1ccccc1)c1c(O)c2ccccc2oc1=O` (stereo not shown) [Warfarin, warfarin] yielded a fraction unbound at 4 h, 10 μM ([8]; Beagle, dog, % Bound Mean) of 0.026, a fraction unbound at 4 h, 10 μM ([8]; Beagle, dog, % Bound R1-R3) of 0.027 and a fraction unbound at 4 h, 10 μM ([8]; CD-1, mouse, % Bound Mean) of 0.217. It also gave a fraction unbound at 4 h, 10 μM ([8]; CD-1, mouse, % Bound R1-R3) of 0.226, a fraction unbound at 4 h, 10 μM ([8]; monkey, % Bound Mean) of 0.006 and a fraction unbound at 4 h, 10 μM ([8]; monkey, % Bound R1-R3) of 0.007.
